Data from the supplement of paper PMC10307832.

Key:
Experiment in all cases: relative viability (nuclei count vs DMSO), 5 days (fraction); higher = more cells survive
Bortezomib + Crizotinib = compound: CC(C)C[C@H](NC(=O)[C@H](Cc1ccccc1)NC(=O)c1cnccn1)B(O)O [Bortezomib] + C[C@@H](Oc1cc(-c2cnn(C3CCNCC3)c2)cnc1N)c1c(Cl)ccc(F)c1Cl [Crizotinib] (partner 1 µM)
Outline: (§1)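 A single step with final 0.05% Triton X-100, 1% formaldehyde and 1 ug/ml Hoechst fixed the cells and stained nuclei 5 days after treatment. Lung cancer cell lines in 1536-well plates had been treated by pin tool the day after seeding with one drug alone or a fixed anchor-drug dose plus five library-drug doses (not always all listed) in √10 steps, and nuclei were counted on 4× images. Relative viability is the ratio of nuclei in treated wells to nuclei in vehicle wells, taken as the median of duplicate plates.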

Bortezomib + Decitabine = compound: CC(C)C[C@H](NC(=O)[C@H](Cc1ccccc1)NC(=O)c1cnccn1)B(O)O [Bortezomib] + Nc1ncn([C@H]2C[C@H](O)[C@@H](CO)O2)c(=O)n1 [Decitabine] (partner 2 µM)
Outline: as §1

Obatoclax + OSI-027 = compound: COC1=CC(c2cc3ccccc3[nH]2)=N/C1=C\c1[nH]c(C)cc1C [Obatoclax] + COc1cccc2cc(-c3nc([C@H]4CC[C@H](C(=O)O)CC4)n4ncnc(N)c34)[nH]c12 [OSI-027] (partner 0.5 µM)
Outline: as §1

Obatoclax + Linsitinib = compound: COC1=CC(c2cc3ccccc3[nH]2)=N/C1=C\c1[nH]c(C)cc1C [Obatoclax] + C[C@]1(O)C[C@@H](c2nc(-c3ccc4ccc(-c5ccccc5)nc4c3)c3c(N)nccn32)C1 [Linsitinib] (partner 1 µM)
Outline: as §1

Cell Line	relative viability (Bortezomib + Crizotinib; first compound 0.0002 µM)	relative viability (Bortezomib + Crizotinib; first compound 0.000632 µM)	relative viability (Bortezomib + Crizotinib; first compound 0.002 µM)	relative viability (Bortezomib + Crizotinib; first compound 0.006325 µM)	relative viability (Bortezomib + Crizotinib; first compound 0.02 µM)	relative viability (Bortezomib + Decitabine; first compound 0.0002 µM)	relative viability (Bortezomib + Decitabine; first compound 0.000632 µM)	relative viability (Bortezomib + Decitabine; first compound 0.002 µM)	relative viability (Bortezomib + Decitabine; first compound 0.006325 µM)	relative viability (Bortezomib + Decitabine; first compound 0.02 µM)	relative viability (Obatoclax + OSI-027; first compound 0.01 µM)	relative viability (Obatoclax + OSI-027; first compound 0.03162 µM)	relative viability (Obatoclax + OSI-027; first compound 0.1 µM)	relative viability (Obatoclax + OSI-027; first compound 0.3162 µM)	relative viability (Obatoclax + OSI-027; first compound 1 µM)	relative viability (Obatoclax + Linsitinib; first compound 0.01 µM)	relative viability (Obatoclax + Linsitinib; first compound 0.03162 µM)	relative viability (Obatoclax + Linsitinib; first compound 0.3162 µM)	relative viability (Obatoclax + Linsitinib; first compound 1 µM)	relative viability (Obatoclax + Linsitinib; first compound 0.1 µM)
HCC-78	0.365	0.328	0.299	0.148	0.174	0.703	0.744	0.644	0.615	0.291	0.393	0.341	0.586	0.539	0.378	0.448	0.52	0.283	0.304	
HCC-366	0.522	0.682	0.598	0.275	0.0107	0.305	0.327	0.39	0.201	0.0383	0.961	0.847	0.827	0.821	0.208	0.597	0.675	0.454	0.427	0.64
HCC-827	0.915	0.837	0.783	0.251	0.116	0.35	0.376	0.346	0.327	0.296	0.846	0.733	0.806	0.675	0.778	0.904	1.01	0.866	0.914	0.895
HOP-62		1.01	0.35	0.235	0.048	0.232	0.204	0.223	0.106	0.0681	0.858	0.848	0.754	0.819	0.583	0.784	1.07	1.13	0.933	0.94
IA-LM	0.996	0.699	0.559	0.0382	0.0338											0.457	0.505	0.465	0.0667	0.5
LC-2-ad		0.476	0.403	0.291	0.19	0.73	0.81	0.931	0.516	0.225	0.838	0.838	0.529	0.724	0.655	0.829	0.828	0.688	0.434	0.906
LCLC-97TM1	0.4	0.329	0.111	0.114	0.118	0.245	0.238	0.21	0.0935	0.0627	0.606	0.553	0.693	0.347	0.52	0.166	0.224	0.163	0.179	0.182
LCLC-103H	1.04	1.04	0.997	0.756	0.207	0.66	0.727	0.68	0.274	0.221	0.462	0.462	0.404	0.457	0.541	0.953	1.02	1	1.23	1.13
LK-2		0.243	0.277	0.207	0.222	0.274	0.384	0.281	0.227	0.15	0.261	0.214	0.225	0.256	0.192	0.524	0.383	0.521	0.662	0.826
NCI-H522						0.777	0.621	0.575	0.432	0.386	0.7	0.718	0.71	0.734	0.775					
NCI-H1299	0.943	0.965	0.969	0.39	0.152											0.975	0.837	0.948	0.72	0.925
NCI-H1395						0.774	0.702	0.431	0.287	0.297	0.659	0.539	0.473	0.557	0.465	1.23	0.922	0.926	0.526	0.884
NCI-H1563	0.894	0.902	0.732	0.522	0.443						0.741	0.797	0.87	0.705	0.619	1.14	1.15	1.26	0.943	1.18
NCI-H1623											0.429	0.434	0.47	0.389	0.471					
NCI-H1648						0.516	0.444	0.366	0.453	0.292	0.253	0.226	0.413	0.269	0.232					
NCI-H1650	0.973	0.93	0.158	0.124	0.147	0.488	0.484	0.182	0.137	0.128	0.677	0.552	0.644	0.386	0.225					
NCI-H1703	0.561	0.495	0.133	0.101	0.081											0.613	0.539	0.917	0.589	0.407
NCI-H1793						0.492		0.507	0.334	0.146	0.293	0.286	0.248	0.275	0.298	0.802	0.662	0.77	0.78	0.935
NCI-H2170	1.03	1.02	1.11	0.233	0.18	0.462	0.465	0.444	0.377	0.126	0.684	0.73	0.647	0.769	0.754					
NCI-H2228	0.521	0.482	0.376	0.166	0.163						0.653	0.507	0.524	0.318	0.152	0.536	1.03	0.445	0.448	1.12
NCI-H2342						0.818	0.795	0.694	0.725	0.436	0.654	0.615	0.728	0.507	0.618					
SW 900						0.347	0.423	0.227	0.206	0.284	0.54	0.512	0.709	0.383	0.258					
